For 52 compounds, inhibition and Ki results are on record in patent publication US12545669B2, “Cycloalkyl and heterocycloalkyl benzisoxazole sulfonamide derivatives” (Pfizer Inc., priority 2019, dated 2026).

Molecules are shown by their SMILES. “And” between values parts separate entries of the source, which are not always exact repeats. Identical values can stand only once.

Sequence of KAT6A (Q92794 whole entry): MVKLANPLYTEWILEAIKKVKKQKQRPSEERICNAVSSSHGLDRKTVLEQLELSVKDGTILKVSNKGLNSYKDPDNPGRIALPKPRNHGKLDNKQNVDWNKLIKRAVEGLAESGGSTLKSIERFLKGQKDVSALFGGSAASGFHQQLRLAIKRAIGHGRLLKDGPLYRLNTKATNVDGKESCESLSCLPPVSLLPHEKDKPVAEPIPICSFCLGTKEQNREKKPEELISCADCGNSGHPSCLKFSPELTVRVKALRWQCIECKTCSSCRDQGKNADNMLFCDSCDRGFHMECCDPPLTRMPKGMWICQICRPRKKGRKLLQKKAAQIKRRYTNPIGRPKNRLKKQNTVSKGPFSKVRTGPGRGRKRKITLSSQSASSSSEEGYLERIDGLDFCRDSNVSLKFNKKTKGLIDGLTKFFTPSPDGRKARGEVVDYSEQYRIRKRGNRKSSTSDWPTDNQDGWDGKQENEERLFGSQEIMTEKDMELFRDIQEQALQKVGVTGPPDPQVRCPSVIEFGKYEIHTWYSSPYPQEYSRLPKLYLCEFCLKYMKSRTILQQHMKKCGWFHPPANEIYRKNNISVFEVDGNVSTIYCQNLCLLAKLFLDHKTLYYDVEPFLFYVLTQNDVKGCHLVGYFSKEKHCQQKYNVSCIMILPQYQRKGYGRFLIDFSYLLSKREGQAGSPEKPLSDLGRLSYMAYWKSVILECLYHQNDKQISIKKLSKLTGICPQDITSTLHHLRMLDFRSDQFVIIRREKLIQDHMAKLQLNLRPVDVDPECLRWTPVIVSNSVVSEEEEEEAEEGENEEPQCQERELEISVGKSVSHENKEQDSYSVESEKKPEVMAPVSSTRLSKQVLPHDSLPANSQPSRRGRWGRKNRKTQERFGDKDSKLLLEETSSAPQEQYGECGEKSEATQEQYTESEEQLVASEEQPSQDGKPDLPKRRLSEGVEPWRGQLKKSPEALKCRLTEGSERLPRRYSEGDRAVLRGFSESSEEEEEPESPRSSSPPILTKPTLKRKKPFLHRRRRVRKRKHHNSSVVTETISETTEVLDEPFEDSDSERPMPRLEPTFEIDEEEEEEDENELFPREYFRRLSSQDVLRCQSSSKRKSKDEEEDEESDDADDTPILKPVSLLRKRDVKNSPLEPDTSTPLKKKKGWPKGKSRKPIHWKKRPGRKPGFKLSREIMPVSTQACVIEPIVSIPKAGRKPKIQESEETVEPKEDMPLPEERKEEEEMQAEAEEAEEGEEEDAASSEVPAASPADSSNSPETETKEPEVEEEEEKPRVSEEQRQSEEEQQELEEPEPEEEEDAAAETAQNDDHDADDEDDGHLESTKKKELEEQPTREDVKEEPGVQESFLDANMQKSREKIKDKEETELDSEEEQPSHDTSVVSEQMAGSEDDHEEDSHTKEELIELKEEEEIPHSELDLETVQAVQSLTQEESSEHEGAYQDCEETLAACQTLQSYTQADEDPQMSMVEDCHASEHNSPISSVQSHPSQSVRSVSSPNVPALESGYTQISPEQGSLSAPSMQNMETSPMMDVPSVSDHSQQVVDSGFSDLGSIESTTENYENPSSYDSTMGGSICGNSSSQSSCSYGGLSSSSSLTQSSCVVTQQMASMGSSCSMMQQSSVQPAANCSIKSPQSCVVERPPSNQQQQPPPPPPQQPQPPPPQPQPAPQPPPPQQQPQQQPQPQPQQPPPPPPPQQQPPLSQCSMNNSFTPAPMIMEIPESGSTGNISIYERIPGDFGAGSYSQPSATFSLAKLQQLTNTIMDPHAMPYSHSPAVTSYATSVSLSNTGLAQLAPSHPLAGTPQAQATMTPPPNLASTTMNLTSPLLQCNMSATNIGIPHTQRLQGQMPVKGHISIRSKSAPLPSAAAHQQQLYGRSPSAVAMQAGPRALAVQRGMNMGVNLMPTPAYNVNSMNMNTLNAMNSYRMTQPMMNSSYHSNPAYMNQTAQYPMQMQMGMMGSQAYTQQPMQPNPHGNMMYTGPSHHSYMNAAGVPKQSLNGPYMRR

One experiment has as its target KAT6A (Homo sapiens (Human), UniProt Q92794). Briefly: KAT assay protocol (SAMDI mass spectrometry), KAT6A. The class given is biochemical. Conditions: 1 μM compound. As to the method:
Biological Assay Section 1 KAT Assay Protocol:
A. Compound Preparation • 1. Prepare 10 mM stock solutions in 100% DMSO from solid material • 2. Serial dilute 10 mM, 1 mM or 0.1 mM compound stocks 3-fold in 100% DMSO for 11-point dose response
B. Reagent Preparation • 1. Prepare 1× assay buffer containing 10 mM Tris HCL pH 8.0, 2.5 mM NaCl, 0.5 mM EDTA, 0.005% BSG and 0.02% Tween-20 • 2. Dilute Histone peptide (CPC Scientific) and AcCoA (Sigma) together in assay buffer to 2×. • 3. Dilute KAT enzyme in assay buffer to 2×.
C. Enzyme Reaction • 1. Final reaction conditions for each KAT assay in a 20 ul assay reaction volume: • i. […] Add 0.5 ul of diluted compound to the assay plate (384-well V-bottom polypropylene plates) or 0.5 ul of DMSO for control wells. • 3. Add 10 ul of 2× Histone peptide/2× AcCoA mix to the assay plate. • 4. Add 10 ul of 2× enzyme to the assay plate. • 5. Stop the reaction after the indicated time with the addition of 2 ul of 5% formic acid • 6. Each reaction was analyzed using self-assembled monolayer desorption/ionization time-of-flight mass spectrometry (Mrksich, Milan (2008) Mass Spectrometry of Self-Assembled Monolayers: A New Tool for Molecular Surface Science ACS Nano 2008 2 (1), 7-18; SAMDI Tech, Inc. (Chicago, IL)). • 7. Area under the curve (AUC) for both substrate and product peaks was determined for KAT6A at M.W. 2723 [Substrate+H]^+ and 2765 [Product+H]^+ with a +/−1 Da tolerance, respectively. • 8. Percent conversion to product was calculated by: AUCProduct/(AUCSubstrate+AUCProduct).
D. Data Analysis • 1. IC50 values were determined by fitting the % conversion at each inhibitor concentration to the 4-parameter IC50 equation using Pfizer proprietary curve fitting software. • 2. Ki values were determined by fitting the % conversion at each inhibitor concentration to the Morrison equation for tightbinding competitive inhibitors using Pfizer proprietary curve fitting software. Materials
KAT enzymes were expressed using a baculovirus expression system and purified at Pfizer, La Jolla. Histone H3 (1-21) peptide ([…], SEQ ID NO:3) was purchased from CPC Scientific (Sunnyvale, CA). Acetyl coenzyme A was purchased from Sigma-Aldrich (St. Louis, MO). All other biochemical reagents were purchased from Sigma-Aldrich or ThermoFisher Scientific (Waltham, MA).
[…] 10 ul of 2× Histone peptide/AcCoA mix was added to a 384-well V-bottom polypropylene assay plate containing 0.5 ul of serially diluted test compound in 100% dimethyl sulfoxide (DMSO). To start the reaction, 10 ul of 2× enzyme solution was added to the assay plate. KAT assays were terminated after 30-60 minutes with the addition of 2 ul of 5% formic acid. KAT6A used histone H3 (1-21) peptide. The final enzyme concentration for KAT6A was 15 nM. Each reaction was analyzed using self-assembled monolayer desorption/ionization time-of-flight mass spectrometry (Mrksich, Milan (2008) Mass Spectrometry of Self-Assembled Monolayers: A New Tool for Molecular Surface Science ACS Nano 2008 2 (1), 7-18; SAMDI Tech, Inc. (Chicago, IL)).
Area under the curve (AUC) for both substrate and product peaks was determined for KAT6A at M.W. 2723 [Substrate+H]^+ and 2765 [Product+H]^+ with a +/−1 Da tolerance, respectively. Percent conversion to product was calculated by: AUCProduct/(AUCSubstrate+AUCProduct). IC50 values were determined by fitting the % conversion at each inhibitor concentration to the 4-parameter IC50 equation using Pfizer proprietary curve fitting software. Ki values were determined by fitting the % conversion at each inhibitor concentration to the Morrison equation for tightbinding competitive inhibitors using Pfizer proprietary curve fitting software.
What is called inhibition is the drop in the measured response relative to a control, in per cent. For the compound `COc1cc(Cn2cccn2)cc2onc(NS(=O)(=O)CC3(C(F)F)CC3)c12` [Example 50], the inhibition at 1 µM was found to be 87%.
The same measure, in the same setting: to `COc1cc(Cn2cccn2)cc2onc(NS(=O)(=O)C3CCC(F)(F)CC3)c12` [Example 51] belongs 65%.
`COc1cc(Cn2cccn2)cc2onc(NS(=O)(=O)CC3(OC)CCCCC3)c12` [Example 52]: the inhibition at 1 µM was found to be 66%.
Same read-out and setting: for `COc1cc(Cn2cccn2)cc2onc(NS(=O)(=O)CCC3(C)CC3)c12` [Example 53] the value was 97%; for `COc1cc(Cn2cccn2)cc2onc(NS(=O)(=O)CC3CCCC(F)C3)c12` (centres unmarked) [Example 54], 82%.
`COCC1(CS(=O)(=O)Nc2noc3cc(Cn4cccn4)cc(OC)c23)CCC1` [Example 55]: the inhibition at 1 µM is 64%.
Same read-out and setting: to `COc1cc(Cn2cccn2)cc2onc(NS(=O)(=O)CC3(OC)CCC3)c12` [Example 56] belongs 71%; to `COc1cc(Cn2cccn2)cc2onc(NS(=O)(=O)CC3CC34CC4)c12` (centres unmarked) [Example 57], 104%.
As to `COc1cc(Cn2cccn2)cc2onc(NS(=O)(=O)CCCC3CC3)c12` [Example 58], the inhibition at 1 µM was 87%.
In the case of `COc1cc(Cn2cccn2)cc2onc(NS(=O)(=O)C3CCCCCC3)c12` [Example 59], the inhibition at 1 µM was 48%.
As to `COc1cc(Cn2cccn2)cc2onc(NS(=O)(=O)CC3CC(C)C3)c12` (centres unmarked) [Example 60], the inhibition at 1 µM is 42%.
Still for that read-out and setting: for `COc1cc(Cn2cccn2)cc2onc(NS(=O)(=O)CC3(C)CCCC3)c12` [Example 61] the value was 55%; for `COc1cc(Cn2cccn2)cc2onc(NS(=O)(=O)C3CC(C)CC(C)C3)c12` (centres unmarked) [Example 62], 97%; for `COc1cc(Cn2cccn2)cc2onc(NS(=O)(=O)CC3CCCCC3(C)C)c12` (centres unmarked) [Example 63], 48%.
Regarding `COc1cc(Cn2cccn2)cc2onc(NS(=O)(=O)CC3C[C@@H]4[C@H](C3)C4(F)F)c12` (some centres unmarked) [Example 64], the inhibition at 1 µM worked out at 92%.
Same read-out and setting: for `COc1cc(Cn2cccn2)cc2onc(NS(=O)(=O)CC3(C(F)F)CCCC3)c12` [Example 65] the value was 95%.
Consider `COc1cc(Cn2cccn2)cc2onc(NS(=O)(=O)CC3CC3(F)F)c12` (centres unmarked) [Example 66], for which the inhibition at 1 µM turned out to be 88%.
Consider `COc1cc(Cn2cccn2)cc2onc(NS(=O)(=O)CC34CCC(CC3)C4)c12` [Example 67], for which the inhibition at 1 µM stood at 104%.
For the compound `COc1cc(Cn2cccn2)cc2onc(NS(=O)(=O)CC3CC(OC)C3)c12` (centres unmarked) [Example 69], the inhibition at 1 µM stood at 78%.
On the same count and under the same terms, to `COc1cc(Cn2cccn2)cc2onc(NS(=O)(=O)CC(OC)C3CCCC3)c12` (centres unmarked) [Example 70] belongs 80%.
Same read-out and setting: for `COc1cc(Cn2cccn2)cc2onc(NS(=O)(=O)CC3(OC)CCCC3)c12` [Example 71] the value was 72%.
In the case of `COc1cc(Cn2cccn2)cc2onc(NS(=O)(=O)C3CCCC3C)c12` (centres unmarked) [Example 72], the inhibition at 1 µM was found to be 70%.
For the compound `COc1cc(Cn2cccn2)cc2onc(NS(=O)(=O)C3CC(C)C3)c12` (centres unmarked) [Example 73], the inhibition at 1 µM was determined as 96%.
Still for that read-out and setting: for `COCC1(S(=O)(=O)Nc2noc3cc(Cn4cccn4)cc(OC)c23)CCC1` [Example 74] the value was 92%; for `COc1cc(Cn2cccn2)cc2onc(NS(=O)(=O)CC3C(C)(C)C3(F)F)c12` (centres unmarked) [Example 75], 91%; for `COc1cc(Cn2cccn2)cc2onc(NS(=O)(=O)CC3(C(F)F)CCC3)c12` [Example 76], 90%.
In the case of `COc1cc(Cn2cccn2)cc2onc(NS(=O)(=O)CCC3CC3(F)F)c12` (centres unmarked) [Example 78], the inhibition at 1 µM worked out at 77%.
Consider `COc1cc(Cn2cccn2)cc2onc(NS(=O)(=O)CC3CCC3(F)F)c12` (centres unmarked) [Example 79], for which the inhibition at 1 µM was 106%.
The same measure, in the same setting: for `COc1cc(Cn2cccn2)cc2onc(NS(=O)(=O)C3CCC(=O)CC3)c12` [Example 80] the value was 60%.
For `COc1cc(Cn2cccn2)cc2onc(NS(=O)(=O)C3(C)CCC3)c12` [Example 81], the inhibition at 1 µM amounted to 41%.
Still for that read-out and setting: for `COc1cc(Cn2cccn2)cc2onc(NS(=O)(=O)C3CCC(C)CC3)c12` (centres unmarked) [Example 82] the value was 61%; for `COc1cc(Cn2cccn2)cc2onc(NS(=O)(=O)[C@H]3CCCC[C@H]3OC)c12` [Example 83], 85%; for `COc1cc(Cn2cccn2)cc2onc(NS(=O)(=O)C3CC(C)(C)C3)c12` [Example 84], 62%.
Regarding `COc1cc(Cn2cccn2)cc2onc(NS(=O)(=O)CC3CN(S(C)(=O)=O)C3)c12` [Example 85], the inhibition at 1 µM was determined as 36%.
Still for that read-out and setting: to `COc1cc(Cn2cccn2)cc2onc(NS(=O)(=O)CC3CC(C)(C)OC3(C)C)c12` (centres unmarked) [Example 86] belongs 77%.
On the same count and under the same terms, for `COc1cc(Cn2cccn2)cc2onc(NS(=O)(=O)C3CCCOC3)c12` (centres unmarked) [Example 87] the value was 73%; for `COc1cc(Cn2cccn2)cc2onc(NS(=O)(=O)C3CCOC(C)C3)c12` (centres unmarked) [Example 89], 84%; for `COc1cc(Cn2cccn2)cc2onc(NS(=O)(=O)C3COC(C)(C)C3)c12` (centres unmarked) [Example 90], 83%.
As for `COc1cc(Cn2cccn2)cc2onc(NS(=O)(=O)[C@@H]3CCCN(C(=O)OCc4ccccc4)C3)c12` [Example 91], the inhibition at 1 µM amounted to 53%.
Take `COc1cc(Cn2cccn2)cc2onc(NS(=O)(=O)CC3CCN(C(C)=O)CC3)c12` [Example 92]: the inhibition at 1 µM is 40%.
For the compound `CCOC1(CS(=O)(=O)Nc2noc3cc(Cn4cccn4)cc(OC)c23)CCOCC1` [Example 93], the inhibition at 1 µM stood at 59%.
As to `COc1cc(Cn2cccn2)cc2onc(NS(=O)(=O)C3CCN(C(C)=O)CC3)c12` [Example 94], the inhibition at 1 µM was 76%.
The same measure, in the same setting: to `COc1cc(Cn2cccn2)cc2onc(NS(=O)(=O)C3CCOCC3C)c12` (centres unmarked) [Example 96] belongs 58%.
As to `COc1cc(Cn2cccn2)cc2onc(NS(=O)(=O)C3CCCN(C(C)=O)C3)c12` (centres unmarked) [Example 97], the inhibition at 1 µM amounted to 83%.
Same read-out and setting: for `COc1cc(Cn2cccn2)cc2onc(NS(=O)(=O)CC3CCCOC3)c12` (centres unmarked) [Example 98] the value was 41%; for `COc1cc(Cn2cccn2)cc2onc(NS(=O)(=O)C3CCOC3=O)c12` (centres unmarked) [Example 99], 83%; for `COc1cc(Cn2cccn2)cc2onc(NS(=O)(=O)CC3CCC(C)O3)c12` (centres unmarked) [Example 100], 69%.
On the same count and under the same terms, for `COc1cc(Cn2cccn2)cc2onc(NS(=O)(=O)CC3CCCCO3)c12` (centres unmarked) [Example 101] the value was 65%.
Same read-out and setting: to `COc1cc(Cn2cccn2)cc2onc(NS(=O)(=O)CCC3CCCO3)c12` (centres unmarked) [Example 102] belongs 70%; to `COc1cc(Cn2cccn2)cc2onc(NS(=O)(=O)CC3CCOC(C)C3)c12` (centres unmarked) [Example 103], 75%.

The same experiment, now with this note: KAT6A Ki at 10 μM AcCoA, 10 μM AcCoA; Morrison equation.
By Ki is commonly meant the equilibrium dissociation constant of an inhibitor or competing ligand from its target. Lower therefore signals tighter binding. `COc1cc(Cn2cccn2)cc2onc(NS(=O)(=O)CC3(OC)CCCCC3)c12` [Example 52] returned a Ki of 127 nM.
As to `COc1cc(Cn2cccn2)cc2onc(NS(=O)(=O)CC3CC34CC4)c12` (centres unmarked) [Example 57], the Ki is 13.9 nM.
As for `COc1cc(Cn2cccn2)cc2onc(NS(=O)(=O)CC3C[C@@H]4[C@H](C3)C4(F)F)c12` (some centres unmarked) [Example 64], the Ki turned out to be 28 nM.
With `COc1cc(Cn2cccn2)cc2onc(NS(=O)(=O)CC3CCCC3(F)F)c12` (centres unmarked) [Example 77], the Ki worked out at 15.5 nM.
On to `COc1cc(Cn2cccn2)cc2onc(NS(=O)(=O)CCC3CC3(F)F)c12` (centres unmarked) [Example 78], for which affinity was put at a Ki of 45.8 nM.
In turn, `COc1cc(Cn2cccn2)cc2onc(NS(=O)(=O)CC3CN(S(C)(=O)=O)C3)c12` [Example 85] returned a Ki of 1340 nM.
Still for that read-out and setting: for `COc1cc(Cn2cccn2)cc2onc(NS(=O)(=O)CC3CC(C)(C)OC3(C)C)c12` (centres unmarked) [Example 86] the value was 107 nM; for `COc1cc(Cn2cccn2)cc2onc(NS(=O)(=O)C3CCCOC3)c12` (centres unmarked) [Example 87], 100 nM.
As to `COc1cc(Cn2cccn2)cc2onc(NS(=O)(=O)[C@H]3CCCN(C(=O)OCc4ccccc4)C3)c12` [Example 88], the Ki amounted to 99.4 nM.
On to `COc1cc(Cn2cccn2)cc2onc(NS(=O)(=O)C3CCOC(C)C3)c12` (centres unmarked) [Example 89], for which the Ki is 87.3 nM.
For `COc1cc(Cn2cccn2)cc2onc(NS(=O)(=O)C3COC(C)(C)C3)c12` (centres unmarked) [Example 90], the Ki is 66.2 nM and 58.1 nM.
Take `COc1cc(Cn2cccn2)cc2onc(NS(=O)(=O)CCC3CCCO3)c12` (centres unmarked) [Example 102]: affinity was put at a Ki of 116 nM.
